The structures appear in SMILES notation. Where two headings read alike, the source gives them in different places. Bounds are passed on as bounds.

These results are taken from paper PMC12794336, “Unconventional chalcogen-containing azolylidene metal complexes as potential anticancer therapeutics” (Chemical Science, 2025).

For data set [1], the system named is ovarian cancer cell lines (A2780 and A2780cis). The data set can be described thus: Cytotoxicity stated jointly for both ovarian cancer cell lines. The conditions noted are these: read-out: Cytotoxicity (IC50) in the ovarian cancer cell lines, A2780 and A2780cis together, approximate text values, 72 h. The protocol:
(§1) counterpart, A2780cis, were procured from the European Collection of Cell
(§2) (ThermoFisher, USA) base medium supplemented with 10% Foetal Bovine
(§3) Serum (FBS; Sigma, Germany) and 1% of Penicillin-Streptomycin
(§4) (ThermoFisher, USA). Additionally, A2780cis cell line was cultured in the
(§5) drug. The human embryonic kidney cell line, HEK293T, and HeLa cell line were
(§6) obtained from American Type Culture Collection (ATCC, USA) and were cultured
(§7) in DMEM GlutaMAX (ThermoFisher, USA) base medium, supplemented with
(§8) 10% FBS and 1% of Penicillin-Streptomycin. All cell lines were maintained in a
(§9) humidified incubator at37 °C and 5% CO2.
(§10) 4.2. Cytotoxicity studies
(§11) cells/mL (A2780cis and HEK293T) was dispensed into flat bottom 96-well plates
(§12) and allowed to attach overnight. On the next day, 10 mM stock solutions of the
(§13) tested compounds were prepared in DMSO, then diluted with media to the final
(§14) concentration range of 0 - 100 µM and applied to the cells; 0.1% DMSO final
(§15) solution and 10 µM final concentration gambogic acid were used as negative and
(§16) positive controls, respectively. After 72 h incubation in a humidified incubator
(§17) under 5% CO2 at 37 °C, PrestoBlue™ cell viability reagent (Cat. No. A13262,
(§18) Invitrogen, USA) was added to cultures at a 1:10 ratio according to the
(§19) manufacturer instructions, and samples were incubated for 1.5 h. Fluorescence
(§20) at 560/590 nm was detected with Tecan Infinite 500 microplate reader (Tecan,
(§21) Switzerland). Three wells were assessed for each concentration of the tested
(§22) compounds and three independent experiments were performed. Non-linear
(§23) regression and IC50 value calculation were performed in GraphPad Prism 9 using
(§24) the build-in function “Dose response- Inhibition”.

Data set [2] is described as follows: n-octanol/water partition coefficient. The format is physicochemical. The conditions noted are these: n-octanol/water. From the text:
Resistance index (RI) ^a, and n-octanol/water partition coefficients (logPOW) | column: logPOW

Data set [3] deals with A2780cis cells with acquired resistance to cisplatin. Nature of the data set: Cytotoxicity, PrestoBlue assay, A2780cis. As to conditions: for IC50: 72 h, PrestoBlue, read-out: IC50 (µM) after 72 h, A2780cis; for Resistance index (RI): RI = IC50 A2780cis/IC50 A2780. Format: cell-based, human. The method, then:
as §1, §2, §3, §4, §5, §6, §7, §8, §9, §10, §11, §12, §13, §14, §15, §16, §17, §18, §19, §20, §21, §22, §23, §24

Data set [4] deals with A2780 ovarian cancer cell line. Nature of the data set: Cytotoxicity, PrestoBlue assay, A2780. Format: cell-based, human. The conditions noted are these: 72 h, PrestoBlue, read-out: IC50 (µM) after 72 h, A2780. The protocol: as §1, §2, §3, §4, §5, §6, §7, §8, §9, §10, §11, §12, §13, §14, §15, §16, §17, §18, §19, §20, §21, §22, §23, §24
Data set [5] deals with non-cancerous human embryonic kidney HEK293T cells. Nature of the data set: Cytotoxicity, PrestoBlue assay, HEK293T. The format is cell-based. As to conditions: 72 h, PrestoBlue, read-out: IC50 (µM) after 72 h, HEK293T. The protocol: as §1, §2, §3, §4, §5, §6, §7, §8, §9, §10, §11, §12, §13, §14, §15, §16, §17, §18, §19, §20, §21, §22, §23, §24
For data set [6], the system named is DNA synthesis in HeLa cells. Nature of the data set: EdU incorporation assay, fluorescence cell microscopy. Format: cell-based. The conditions noted are these: 3 µM, 24 h, gemcitabine = 100%, DMSO = 0%. The source says: The inhibitory effect of Pt1^Y and Pt2^Y (Y = NR, O, S) on DNA synthesis during cell proliferation was quantified in cellulo using an EdU incorporation assay and fluorescence cell microscopy (Fig. 6 and SI Fig. 12).[70] Gemcitabine, a clinically-approved DNA synthesis inhibitor,[71] was used as a positive control (100% inhibition), and the cells treated with an equivalent amount of DMSO served as a negative control (“untreated”, 0% inhibition). Cisplatin and transplatin were included as references. DNA synthesis was blocked to various degrees in the cells treated with the different platinum complexes. […]
4.4. EdU incorporation assay
EdU incorporation assay was performed using a Click-iT EdU Imaging kit
(C10086, Thermo Fisher, Switzerland) according to the manufacturer’s protocol.
HeLa cells were seeded into a black 96-well PhenoPlate with optically clear flat-bottom (Revity 6055302) at a concentration of 4000 cells per well. After 24 h, the cells were treated with the tested compounds Pt1Y and Pt2Y (Y = NR, O, S), […]
of the compounds in HeLA cells). Gemcitabine (1 and 3 µM) and an equal volume of DMSO were used as positive and negative control, respectively. Each condition was tested in triplicate. The assay was performed after an incubation of 24 h. The cells were additionally stained by Hoechst 33342 diluted in PBS with 3% BSA. The fluorescent signal was detected with the widefield INCell 2200 microscope (GE health care, USA) using a 10X/0.45 objective. The DAPI channel was used for Hoechst 33342 emitting blue (λex = 390/ 18 nm, λem = 432.5/ 48 nm), and the FITC channel for Edu-AlexaFluor-488 (λex = 475/ 28 nm, λem = 511.5/23 nm) emitting in green. For each well, 9 fields of view were captured. Image analysis was performed using CellProfiler (v4.2.5), CellProfiler Analyst (v3.0.4) and FIJI (v1.54k) software. Images were first pre -processed (correction for flat - field illumination using a Gaussian-based smoothing filter and rescaled for segmentation). All cells were segmented using the minimum cross -entropy thresholding method on an intermediate image composed of the addition of 2 channels imaged. For all cells, featur es of size, shape, and fluorescence intensities were extracted. Cells were then either classified directly as live or dead based on a combination of their size and EdU staining intensity or classified automatically as live or dead using a machine learning -based random forest classifier model in a multiparametric approach. The readout used is the average percentage of live or dead cells in each condition and the values are normalised to gemcitabine at 3 μM and DMSO (untreated) with the corresponding volume at […]

The subject of data set [7] is A2780, A2780cis and HEK293T cell lines. The data set can be described thus: Cytotoxicity stated jointly for all three cell lines. The conditions noted are these: HEK293T together, 72 h. The format is cell-based, human. The method, then: as §1, §2, §3, §4, §5, §6, §7, §8, §9, §10, §11, §12, §13, §14, §15, §16
under 5% CO2 at 37 °C, PrestoBlue™ cell viability reagent (Cat. No. A13262, […]
as §19, §20
Switzerland). Three wells were assessed for each concentration of the tested […]

For data set [8] the following is noted: n-octanol/water; cited from earlier work.
On the set-up of data set [9]: method as in PMID 21082862. As to conditions: cell line not stated; read-out: Cytotoxicity reported in the literature; cited from earlier work.

In the case of `[I][Pt-2]([I])([c]1occ[n+]1Cc1ccccc1)[n+]1ccccc1` [Pt2^O], the IC50 in data set [1] was approximately 5 µM; in data set [1] (listed as Pt2^S), approximately 8 µM; in data set [3] (listed as Pt2^S), 12 ± 3 µM; in data set [3], 5 ± 2 µM; in [4] (listed as Pt2^S), 6 ± 1 µM; in [4] it was 4 ± 1 µM. Moreover, the IC50 in data set [5] (listed as Pt2^S) was 9 ± 2 µM; in [5] it was 6 ± 2 µM. Besides, the logPOW in data set [2] worked out at 1.6 ± 0.2; in [2] (listed as Pt2^S) it was 1.8 ± 1.0. In addition, the “Resistance index (RI)” value in data set [3] worked out at 1.5; in [3] (listed as Pt2^S), 2.2. Besides, the entries for the “Degree of inhibition of DNA synthesis” value in [6] and in [6] (listed as Pt2^S) were 37% and 24%, respectively.

Turning to `Cc1ccc(C(C)C)cc1.[Cl][Ru]([Cl])[PH]12CN3CN(CN(C3)C1)C2` [RAPTA-C, reference compound], the IC50 in data set [7], in [3], in data set [4] and in [5] was more than 100 µM throughout. For the same compound, the logPOW in data set [8] is −1.8 (ref. [64]).

For the compound `CCn1[c]([Au-][Cl])[n+](CC)c2ccccc21` [same complex bearing a chlorido ligand], the IC50 in [9] was 6.4 ± 2 µM.
